One test concerns the target PI3 kinase alpha (Homo sapiens, UniProt P42336). In words: PI3K ATP depletion assay (Biological Method 1, Assay 3; KinaseGlo luminescence). Type of test: biochemical. The conditions noted are these: ATP depletion assay; read-out: PI3 Kinase Alpha, IC50. In outline: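 Compound in DMSO was mixed with 10 nM PI3 kinase and 5 μg/mL phosphatidylinositol, and the reaction was started with 2 μM ATP. It ran to about 50% ATP depletion and was stopped with KinaseGlo.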

The test system of test [1] is A2780 ovarian cancer cells. Nature of the test: Cellular proliferation in A2780 cells, Cell Titer Glo (Biological Method 4). In kind it is cell-based. As to conditions: Homo sapiens; ovarian cancer cell line A2780. In outline: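 A2780 cells seeded at 1,000/well in DMEM with 10% FBS, at least 2 h before compound, then exposed 72 h at 37 °C, 5% CO2. Viable cells measured by Cell Titer Glo luminescence; EC50 calculated from duplicate conditions.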
Background: Cellular ATP, detected with luciferase, serves as a proxy for viable cell number.

Test [2] has as its system pSer473 Akt in A2780 cells. In words: pSer473 Akt assay to monitor PI3K pathway in A2780 cells (Biological Method 2, MSD). In kind it is cell-based. As to conditions: Homo sapiens; inhibition of Akt phosphorylation, A2780 cells. In outline: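 A2780 ovarian cancer cells in DMEM/10% FBS were treated with compound for 1 h at 37 °C, then lysed. pSer473-Akt and total Akt were measured by MSD electrochemiluminescence immunoassay. The pSer473/total Akt ratio gave % inhibition versus DMSO, from which EC50 was derived.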

IC50 and EC50 data for 34 compounds are collected here from US8217035B2, “Pyrimidine derivatives used as PI-3-kinase inhibitors” (Novartis AG, priority 2006, dated 2012).

Some results are limits rather than exact numbers.

Chain of PI3 kinase alpha (P42336 whole entry): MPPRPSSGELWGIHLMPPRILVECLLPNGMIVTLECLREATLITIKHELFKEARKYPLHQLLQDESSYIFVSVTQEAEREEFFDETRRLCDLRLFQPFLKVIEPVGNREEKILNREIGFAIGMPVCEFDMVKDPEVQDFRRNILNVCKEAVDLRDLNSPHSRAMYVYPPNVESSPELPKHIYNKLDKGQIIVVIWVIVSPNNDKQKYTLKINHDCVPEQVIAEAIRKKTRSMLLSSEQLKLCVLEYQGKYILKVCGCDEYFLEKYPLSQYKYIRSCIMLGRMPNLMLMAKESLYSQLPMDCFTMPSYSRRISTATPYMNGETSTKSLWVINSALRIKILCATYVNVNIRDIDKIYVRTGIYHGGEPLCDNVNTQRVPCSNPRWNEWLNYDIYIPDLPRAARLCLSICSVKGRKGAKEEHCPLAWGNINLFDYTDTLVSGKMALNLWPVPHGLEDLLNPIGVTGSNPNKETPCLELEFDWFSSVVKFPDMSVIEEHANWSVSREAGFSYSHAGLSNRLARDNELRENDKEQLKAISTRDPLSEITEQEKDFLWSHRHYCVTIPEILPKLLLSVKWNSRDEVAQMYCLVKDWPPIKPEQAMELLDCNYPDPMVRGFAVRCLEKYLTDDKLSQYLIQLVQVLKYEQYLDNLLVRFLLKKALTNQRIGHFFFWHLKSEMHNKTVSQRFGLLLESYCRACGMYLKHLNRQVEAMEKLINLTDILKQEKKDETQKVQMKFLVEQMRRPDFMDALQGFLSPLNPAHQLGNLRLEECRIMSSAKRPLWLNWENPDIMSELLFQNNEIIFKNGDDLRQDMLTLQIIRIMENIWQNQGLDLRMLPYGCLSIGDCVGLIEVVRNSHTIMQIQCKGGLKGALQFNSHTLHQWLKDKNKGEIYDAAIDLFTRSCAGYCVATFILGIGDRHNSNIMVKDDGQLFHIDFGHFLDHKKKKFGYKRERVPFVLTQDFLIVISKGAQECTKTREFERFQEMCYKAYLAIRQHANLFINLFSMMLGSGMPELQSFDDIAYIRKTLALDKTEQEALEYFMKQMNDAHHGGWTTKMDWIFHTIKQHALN
Chain of PI3 kinase alpha (P27986 whole entry partner): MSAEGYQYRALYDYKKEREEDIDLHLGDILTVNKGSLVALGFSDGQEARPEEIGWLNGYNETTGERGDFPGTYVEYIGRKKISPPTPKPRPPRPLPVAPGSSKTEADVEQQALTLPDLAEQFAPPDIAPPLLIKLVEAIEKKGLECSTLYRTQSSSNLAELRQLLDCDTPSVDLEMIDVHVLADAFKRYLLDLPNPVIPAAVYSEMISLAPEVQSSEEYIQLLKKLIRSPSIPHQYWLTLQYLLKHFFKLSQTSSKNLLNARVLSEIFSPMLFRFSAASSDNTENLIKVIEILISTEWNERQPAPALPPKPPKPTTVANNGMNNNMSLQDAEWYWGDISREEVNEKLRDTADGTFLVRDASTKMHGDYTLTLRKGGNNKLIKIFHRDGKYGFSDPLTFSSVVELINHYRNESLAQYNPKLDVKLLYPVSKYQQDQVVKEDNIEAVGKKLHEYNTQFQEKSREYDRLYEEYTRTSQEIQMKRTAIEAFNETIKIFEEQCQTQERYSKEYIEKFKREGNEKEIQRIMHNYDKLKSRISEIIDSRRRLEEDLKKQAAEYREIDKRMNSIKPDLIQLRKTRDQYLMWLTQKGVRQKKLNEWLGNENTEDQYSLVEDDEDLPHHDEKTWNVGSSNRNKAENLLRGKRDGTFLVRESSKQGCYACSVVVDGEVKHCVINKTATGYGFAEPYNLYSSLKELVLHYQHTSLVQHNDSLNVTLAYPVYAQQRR

In general, IC50 refers to the concentration that gives 50% inhibition. As usually defined, the EC50 is the concentration giving half of the maximal effect. For `CC(C)OC(=O)N1CCC(Oc2cc(-c3cnc(N)nc3N)nc(N3CCOCC3)n2)CC1` [Compound 131], on PI3 kinase alpha, the IC50 is less than 1000 nM. Also, the EC50 in test [1] and in test [2] was less than 1000 nM each time.
Regarding `CC(C)C(=O)N1CCC(Oc2cc(-c3cnc(N)nc3N)nc(N3CCOCC3)n2)CC1` [Compound 134], the IC50 at PI3 kinase alpha was less than 1000 nM. The EC50 in test [1] and in test [2] was less than 1000 nM each time.
Take `Nc1ncc(-c2cc(Nc3ccc4cn[nH]c4c3)nc(N3CCOCC3)n2)cn1` [Compound 135]: the IC50 at PI3 kinase alpha was less than 1000 nM. The EC50 in test [1] and in test [2] was less than 1000 nM each time.
As to `CS(=O)(=O)Nc1ncccc1-c1cc(-c2cnc(N)cc2C#N)nc(N2CCOCC2)n1` [Compound 136], the IC50 at PI3 kinase alpha is less than 1000 nM. Also, the EC50 in test [1] and in test [2] was less than 1000 nM throughout.
Turning to `CC(C)C(=O)N1CCC[C@@H](Oc2cc(-c3cnc(N)nc3N)nc(N3CCOCC3)n2)C1` [Compound 137], the IC50 at PI3 kinase alpha was less than 1000 nM. The figures for the EC50 in test [1] and in test [2] were less than 10000 nM and less than 1000 nM, respectively.
Turning to `Nc1cc(C(F)(F)F)c(-c2cc(-c3nccs3)nc(N3CCOCC3)n2)cn1` [Compound 138], the IC50 at PI3 kinase alpha was less than 1000 nM. Also, the EC50 in test [1] is less than 10000 nM; in test [2] it was less than 1000 nM.
Take `CS(=O)(=O)c1cccc(Nc2cc(-c3ccc(N)nc3)nc(N3CCOCC3)n2)c1` [Compound 139]: the IC50 on PI3 kinase alpha was less than 1000 nM. In addition, the EC50 in test [1] was less than 10000 nM; in test [2] it was less than 1000 nM.
For `COc1cccc2ncc(Nc3cc(-c4cnc(N)cc4C(F)(F)F)nc(N4CCOCC4)n3)cc12` [Compound 140], on PI3 kinase alpha, the IC50 was less than 1000 nM. Also, the results for the EC50 in test [1] and in test [2] were less than 10000 nM and less than 1000 nM, respectively.
As for `CS(=O)(=O)c1ccccc1Nc1cc(-c2ccc(N)nc2)nc(N2CCOCC2)n1` [Compound 141], the IC50 on PI3 kinase alpha is less than 1000 nM. In addition, the EC50 in test [1] was less than 10000 nM; in test [2], less than 1000 nM.
Regarding `Nc1ccc(-c2cc(Nc3ccncc3C(F)(F)F)nc(N3CCOCC3)n2)cn1` [Compound 142], the IC50 on PI3 kinase alpha was less than 1000 nM. The EC50 in test [1] and in test [2] was less than 1000 nM throughout.
As to `CS(=O)(=O)c1cccc(-c2cc(-c3cnc(N)nc3C(F)(F)F)nc(N3CCOCC3)n2)c1` [Compound 143], at PI3 kinase alpha, the IC50 is less than 1000 nM. Also, the half-maximal effective concentration (EC50) in test [1] and in test [2] was less than 1000 nM in each case.
As for `N#Cc1cnc(Nc2cc(-c3cnc(N)cc3C(F)(F)F)nc(N3CCOCC3)n2)s1` [Compound 144], at PI3 kinase alpha, the IC50 was less than 1000 nM. For the same compound, the EC50 in test [1] was less than 10000 nM; in test [2], less than 1000 nM.
As for `CS(=O)(=O)Nc1ncccc1-c1cc(-c2cnc(N)cc2C(F)(F)F)nc(N2CCOCC2)n1` [Compound 145], the IC50 at PI3 kinase alpha was less than 1000 nM. Also, the values for the EC50 in test [1] and in test [2] were less than 10000 nM and less than 1000 nM, respectively.
Take `COc1ccnc(Nc2cc(-c3ccc(N)nc3)nc(N3CCOCC3)n2)c1` [Compound 148]: the IC50 on PI3 kinase alpha was less than 1000 nM. For the same compound, the EC50 was less than 25000 nM in test [1] and less than 1000 nM in test [2].
Take `CS(=O)(=O)c1ccc2cc(Nc3cc(-c4ccc(N)nc4)nc(N4CCOCC4)n3)cnc2c1` [Compound 149]: on PI3 kinase alpha, the IC50 was less than 1000 nM. Moreover, the EC50 in test [1] is less than 10000 nM; in test [2], less than 1000 nM.
Consider `Nc1cc(C(F)(F)F)c(-c2cc(Nc3ccc(OC4CCNCC4)nc3)nc(N3CCOCC3)n2)cn1` [Compound 150], for which, at PI3 kinase alpha, the IC50 is less than 1000 nM. In addition, the EC50 in test [1] and in test [2] was less than 1000 nM throughout.
In the case of `N#Cc1ccnc(Nc2cc(-c3ccc(N)nc3)nc(N3CCOCC3)n2)c1` [Compound 152], the IC50 at PI3 kinase alpha is less than 1000 nM. Further, the EC50 in test [1] is less than 10000 nM; in test [2] it was less than 1000 nM.
In the case of `Nc1cc(C(F)(F)F)c(-c2cc(Nc3ccncc3C(F)(F)F)nc(N3CCOCC3)n2)cn1` [Compound 153], the IC50 on PI3 kinase alpha is less than 1000 nM. Further, the EC50 in test [1] and in test [2] was less than 1000 nM throughout.
Turning to `COc1ccc2ncc(Nc3cc(-c4cnc(N)nc4C)nc(N4CCOCC4)n3)cc2c1` [Compound 154], at PI3 kinase alpha, the IC50 was less than 1000 nM. Also, the half-maximal effective concentration (EC50) in test [1] and in test [2] was less than 1000 nM each time.
`Nc1ccc(-c2cc(Nc3ccnc(Cl)c3)nc(N3CCOCC3)n2)cn1` [Compound 155]: on PI3 kinase alpha, the IC50 is less than 1000 nM. The EC50 was less than 10000 nM in test [1] and less than 1000 nM in test [2].
On to `COc1cccc2ncc(Nc3cc(-c4ccc(N)nc4)nc(N4CCOCC4)n3)cc12` [Compound 156], for which the IC50 at PI3 kinase alpha is less than 1000 nM. Also, the EC50 in test [1] and in test [2] was less than 1000 nM in each case.
`CS(=O)(=O)Nc1nc2ccccc2cc1-c1cc(-c2ccc(N)nc2)nc(N2CCOCC2)n1` [Compound 157]: the IC50 at PI3 kinase alpha is less than 1000 nM. The EC50 in test [1] was less than 25000 nM; in test [2], less than 1000 nM.
As to `Nc1ncc(-c2cc(Nc3ccncc3C(F)(F)F)nc(N3CCOCC3)n2)c(C(F)(F)F)n1` [Compound 158], the IC50 on PI3 kinase alpha was less than 1000 nM. The EC50 in test [1] and in test [2] was less than 1000 nM each time.
For the compound `CS(=O)(=O)Nc1ccccc1-c1cc(-c2cnc(N)cc2C(F)(F)F)nc(N2CCOCC2)n1` [Compound 159], the IC50 on PI3 kinase alpha was less than 1000 nM. Moreover, the EC50 in test [1] was less than 10000 nM; in test [2], less than 1000 nM.
As for `COc1nc(N)ncc1-c1cc(Nc2cnc3ccccc3c2)nc(N2CCOCC2)n1` [Compound 161], the IC50 at PI3 kinase alpha was less than 1000 nM. The EC50 in test [1] and in test [2] was less than 1000 nM throughout.
`Nc1ccc(-c2cc(Nc3cccc(-c4cnco4)c3)nc(N3CCOCC3)n2)cn1` [Compound 163]: at PI3 kinase alpha, the IC50 was less than 1000 nM. Further, the EC50 in test [1] is less than 10000 nM; in test [2], less than 1000 nM.
For `Nc1ncc(-c2cc(Nc3ccc4c(c3)OCCO4)nc(N3CCOCC3)n2)c(C(F)(F)F)n1` [Compound 164], the IC50 at PI3 kinase alpha is less than 1000 nM. The EC50 in test [1] and in test [2] was less than 1000 nM in each case.
As to `CS(=O)(=O)c1cccc(-c2cc(-c3cnc(N)cc3Cl)nc(N3CCOCC3)n2)c1` [Compound 165], at PI3 kinase alpha, the IC50 is less than 1000 nM. The EC50 in test [1] and in test [2] was less than 1000 nM each time.
As to `NC(=O)c1cccc(Nc2cc(-c3ccc(N)nc3)nc(N3CCOCC3)n2)c1` [Compound 166], on PI3 kinase alpha, the IC50 was less than 1000 nM. The EC50 in test [1] was less than 10000 nM; in test [2], less than 1000 nM.
For `CC(C)OC(=O)N1CCC[C@H](Oc2cc(-c3cnc(N)nc3N)nc(N3CCOCC3)n2)C1` [Compound 167], the IC50 at PI3 kinase alpha was less than 1000 nM. Besides, the EC50 in test [1] is less than 10000 nM; in test [2], less than 1000 nM.
As to `Nc1ccc(-c2cc(-n3ncc4c(N)cccc43)nc(N3CCOCC3)n2)cn1` [Compound 168], the IC50 on PI3 kinase alpha was less than 1000 nM. In addition, the EC50 in test [1] and in test [2] was less than 1000 nM throughout.
With `Nc1ccc(-c2cc(Nc3cnc4ccccc4c3)nc(N3CCOCC3)n2)c(F)n1` [Compound 169], the IC50 at PI3 kinase alpha was less than 1000 nM. Moreover, the EC50 in test [1] and in test [2] was less than 1000 nM throughout.
For `CS(=O)(=O)Nc1ncccc1-c1cc(-c2cnc(N)cc2Cl)nc(N2CCOCC2)n1` [Compound 170], the IC50 at PI3 kinase alpha was less than 1000 nM. In addition, the EC50 in test [1] and in test [2] was less than 1000 nM in each case.
With `Cn1cnnc1-c1cccc(Nc2cc(-c3cnc(N)cc3C(F)(F)F)nc(N3CCOCC3)n2)c1` [Compound 171], the concentration for half-maximal inhibition (IC50) on PI3 kinase alpha was less than 1000 nM. Further, the EC50 in test [1] and in test [2] was less than 1000 nM each time.
